For data set [1], the system named is MCF7. Put plainly: Antiproliferative activity against human MCF7 cells harboring ER-alpha Y537S mutant assessed as inhibition of cell growth by CCK8 assay. Format: functional, cell-based.
The subject of data set [2] is MCF7. Put plainly: Induction of apoptosis in human MCF7 cells assessed as maximal increase in early apoptotic cells at 10 uM incubated for 48 hrs by AnnexinV-FITC/PI staining based flow cytometry. Type of data set: functional. A general note: A flow cytometer gives signals particle by particle.
Data set [3] can be described thus: Toxicity against Balb/c mouse xenografted with tamoxifen-resistant human LCC2 cells assessed as effect on spleen pathological changes at 3 to 5 uM/Kg, ip administered once every 2 days for 23 days and measured on day 25 by Hematoxylin-Eosin based […] staining analysis. Format: organism-based. The settings on record: in vivo, 600 h, dose 3-5 µM/Kg, time 25 day. On the technique in general: A xenograft is tissue or cells of one species grown in another, often human tumour cells in immunodeficient mice.

A short description of data set [4]: AUC (0 to t) in Balb/c mouse at 20 mg/kg, po by LC-MS/MS analysis. Type of data set: ADME, organism-based. The settings on record: in vivo.
Data set [5] in a line: Clearance in Balb/c mouse at 2 mg/kg, iv by LC-MS/MS analysis. Type of data set: ADME, organism-based. The settings on record: in vivo.
The nature of data set [6]: Induction of apoptosis in tamoxifen-resistant human LCC2 cells assessed as early apoptotic cells at 20 uM incubated for 48 hrs by AnnexinV-FITC/PI staining based flow cytometry (reference value: 5.92%). Type of data set: functional, Tamoxifen-resistant LCC2 cell.
Another data set deals with Mus musculus. Put plainly: In vivo PROTAC activity at CRBN/SRC-3 in Balb/c mouse xenografted with tamoxifen-resistant human LCC2 cells assessed as induction of SRC-3 degradation in tumor tissues at 3 uM/Kg, ip administered once every 2 days for 23 days and measured on day 25 by western blot analysis. Format: functional, organism-based. The settings on record: time 25.0 day.

Data set [7] is described as follows: Toxicity against Balb/c mouse xenografted with tamoxifen-resistant human LCC2 cells assessed as effect on lung pathological changes at 3 to 5 uM/Kg, ip administered once every 2 days for 23 days and measured on day 25 by Hematoxylin-Eosin based […] staining analysis. Format: organism-based. The settings on record: in vivo, 600 h, dose 3-5 µM/Kg, time 25 day.

Data set [8] addresses T1, Protein cereblon/Nuclear receptor coactivator 3 (Homo sapiens, UniProt Q9Y6Q9+Q96SW2). As to the kind of experiment: PROTAC activity at CRBN/SRC-3 in tamoxifen-resistant human LCC2 cells assessed as induction of SRC-3 degradation at 1 uM preincubated with SI-2 for 2 hrs followed by incubation with compound and measured after 36 hrs by immunoblot analysis. Format: cell-based. The settings on record: Tamoxifen-resistant LCC2 cell.

The nature of data set [9]: Induction of cell cycle arrest in tamoxifen-resistant human LCC2 cells assessed as accumulation of cells at S phase at 10 uM incubated for 48 hrs by propidium iodide staining based flow cytometry (reference value: 9.72%). Type of data set: functional.
The nature of data set [10]: Induction of apoptosis in tamoxifen-resistant human LCC2 cells assessed as early apoptotic cells at 5 uM incubated for 48 hrs by AnnexinV-FITC/PI staining based flow cytometry (reference value: 5.92%). Format: functional, Tamoxifen-resistant LCC2 cell.
The nature of data set [11]: Toxicity against Balb/c mouse xenografted with tamoxifen-resistant human LCC2 cells assessed as effect on heart pathological changes at 3 to 5 uM/Kg, ip administered once every 2 days for 23 days and measured on day 25 by Hematoxylin-Eosin based […] staining analysis. Type of data set: organism-based. The settings on record: in vivo, 600 h, dose 3-5 µM/Kg, time 25 day.

Data set [12] in a line: Induction of apoptosis in tamoxifen-resistant human LCC2 cells assessed as necrotic cells at 1 uM incubated for 48 hrs by AnnexinV-FITC/PI staining based flow cytometry (reference value: 1.16%). Format: functional, Tamoxifen-resistant LCC2 cell.
Data set [13] concerns the target Voltage-gated inwardly rectifying potassium channel KCNH2 (Homo sapiens, UniProt Q12809).
Data set [14] relates to Tamoxifen-resistant LCC2 cell. Put plainly: Antitumor activity against tamoxifen-resistant human LCC2 cells xenografted in Balb/c mouse assessed as reduction in Ki67 expression in tumor tissues at 5 uM/Kg, ip administered once every 2 days for 23 days and measured on day 25 by Hematoxylin-Eosin staining based immunohistochemical staining analysis. The settings on record: time 25.0 day. Type of data set: functional, organism-based.

Data set [15] is described as follows: Induction of apoptosis in tamoxifen-resistant human LCC2 cells assessed as viable cells at 20 uM incubated for 48 hrs by AnnexinV-FITC/PI staining based flow cytometry (reference value: 88.09%). Type of data set: functional. The settings on record: Tamoxifen-resistant LCC2 cell, read-out: Activity.
The nature of data set [16]: Cmax in Balb/c mouse at 4 mg/kg, ip by LC-MS/MS analysis. Format: ADME, organism-based. The settings on record: in vivo.
The target of data set [17] is T1, Protein cereblon/Nuclear receptor coactivator 3. Put plainly: PROTAC activity at CRBN/SRC-3 in human MCF-7 cells harboring Y537S mutant assessed as induction of SRC-3 degradation measured after 36 hrs by immunoblot analysis. Format: cell-based. The settings on record: MCF7, dose 0.01-10 µM. Background: A western blot detects proteins with antibodies after separation by electrophoresis.

The target is the same in data set [18]. Put plainly: PROTAC activity at CRBN/SRC-3 in human MCF7 cells overexpressing EGFR assessed as induction of SRC-3 degradation measured after 36 hrs by immunoblot analysis. The settings on record: dose 0.01-10 µM. Type of data set: cell-based.
Data set [19] is described as follows: AUC(0 to t) in Balb/c mouse at 2 mg/kg, iv by LC-MS/MS analysis. Type of data set: ADME, organism-based. The settings on record: in vivo.
A short description of data set [20]: Induction of apoptosis in tamoxifen-resistant human LCC2 cells assessed as viable cells at 5 uM incubated for 48 hrs by AnnexinV-FITC/PI staining based flow cytometry (reference value: 88.09%). Type of data set: functional. The settings on record: Tamoxifen-resistant LCC2 cell, read-out: Activity.
Data set [21] in a line: AUC (0 to infinity) in Balb/c mouse at 20 mg/kg, po by LC-MS/MS analysis. Format: ADME, organism-based. The settings on record: in vivo.

Structures are written as SMILES. Active and inactive are the calls of the source. No cut-off for these calls is given here.

These results are taken from ChEMBL document CHEMBL6178017, “Intercepting the Downstream of the Estrogen Receptor Signaling Pathway: Discovery of a Potent and Efficient SRC-3 PROTAC Degrader for Overcoming Endocrine Resistance Breast Cancer” (J Med Chem, 2025).

The IC50 is the point on the concentration scale where inhibition reaches its midpoint. In general, AUC(0-t) refers to exposure summed from dosing to a finite time, without extrapolation to infinity. A word on the clearance: it is a measure of how efficiently the substance is removed, as volume per time. In general, Cmax refers to the maximum level reached in the sampled fluid or tissue. For orientation: AUC(0-inf) means the area under the concentration-time curve extrapolated to infinity. Low values mean low exposure, high ones high exposure.

T1 sequence (Q96SW2 whole entry partner): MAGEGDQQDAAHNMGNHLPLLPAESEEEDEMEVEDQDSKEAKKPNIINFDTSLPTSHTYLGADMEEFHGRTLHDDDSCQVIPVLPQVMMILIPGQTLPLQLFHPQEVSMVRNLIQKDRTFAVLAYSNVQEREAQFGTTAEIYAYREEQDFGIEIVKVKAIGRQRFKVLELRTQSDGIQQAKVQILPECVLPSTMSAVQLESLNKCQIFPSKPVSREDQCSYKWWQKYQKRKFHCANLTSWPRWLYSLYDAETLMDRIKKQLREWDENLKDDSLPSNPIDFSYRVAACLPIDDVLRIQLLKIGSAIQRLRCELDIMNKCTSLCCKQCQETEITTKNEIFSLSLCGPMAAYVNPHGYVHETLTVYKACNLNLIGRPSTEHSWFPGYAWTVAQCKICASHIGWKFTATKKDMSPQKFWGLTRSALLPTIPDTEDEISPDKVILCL
T1 sequence (Q9Y6Q9 2-1424 limits assumed): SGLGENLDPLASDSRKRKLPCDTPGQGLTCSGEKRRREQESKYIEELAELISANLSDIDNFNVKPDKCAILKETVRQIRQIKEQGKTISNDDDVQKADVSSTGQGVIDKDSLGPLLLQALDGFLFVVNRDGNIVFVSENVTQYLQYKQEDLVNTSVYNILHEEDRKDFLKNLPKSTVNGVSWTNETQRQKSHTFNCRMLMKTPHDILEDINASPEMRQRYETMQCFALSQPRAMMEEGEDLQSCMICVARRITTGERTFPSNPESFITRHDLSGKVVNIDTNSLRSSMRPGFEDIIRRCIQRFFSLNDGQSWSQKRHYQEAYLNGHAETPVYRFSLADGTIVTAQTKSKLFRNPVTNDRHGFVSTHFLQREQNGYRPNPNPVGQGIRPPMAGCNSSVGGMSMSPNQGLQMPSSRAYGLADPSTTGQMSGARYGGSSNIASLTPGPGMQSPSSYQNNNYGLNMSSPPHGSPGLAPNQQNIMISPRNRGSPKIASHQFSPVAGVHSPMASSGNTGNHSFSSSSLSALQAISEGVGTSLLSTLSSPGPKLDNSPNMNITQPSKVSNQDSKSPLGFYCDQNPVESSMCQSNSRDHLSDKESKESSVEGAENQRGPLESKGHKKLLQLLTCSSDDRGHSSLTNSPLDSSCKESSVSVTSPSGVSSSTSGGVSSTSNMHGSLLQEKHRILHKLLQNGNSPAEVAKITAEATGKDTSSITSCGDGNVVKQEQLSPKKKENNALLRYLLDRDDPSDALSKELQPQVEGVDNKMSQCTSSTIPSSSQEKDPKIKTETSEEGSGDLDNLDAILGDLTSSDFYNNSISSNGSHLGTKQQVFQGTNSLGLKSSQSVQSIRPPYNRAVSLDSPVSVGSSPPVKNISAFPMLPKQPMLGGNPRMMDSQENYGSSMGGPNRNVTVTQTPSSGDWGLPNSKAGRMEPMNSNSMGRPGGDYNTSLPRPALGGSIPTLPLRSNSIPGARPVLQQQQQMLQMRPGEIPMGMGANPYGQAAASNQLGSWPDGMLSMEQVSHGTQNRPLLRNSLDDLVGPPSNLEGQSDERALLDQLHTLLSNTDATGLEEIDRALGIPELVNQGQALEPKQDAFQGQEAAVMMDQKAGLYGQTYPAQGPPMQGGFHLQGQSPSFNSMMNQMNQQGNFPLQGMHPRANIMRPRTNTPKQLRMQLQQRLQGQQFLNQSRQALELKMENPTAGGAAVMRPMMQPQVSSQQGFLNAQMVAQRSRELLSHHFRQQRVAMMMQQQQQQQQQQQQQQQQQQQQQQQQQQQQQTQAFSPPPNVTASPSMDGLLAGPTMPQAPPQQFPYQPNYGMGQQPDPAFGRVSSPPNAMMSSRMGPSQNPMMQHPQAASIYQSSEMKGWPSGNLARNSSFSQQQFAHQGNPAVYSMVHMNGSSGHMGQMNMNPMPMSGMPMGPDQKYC
Voltage-gated inwardly rectifying potassium channel KCNH2, sequence (Q12809 whole entry): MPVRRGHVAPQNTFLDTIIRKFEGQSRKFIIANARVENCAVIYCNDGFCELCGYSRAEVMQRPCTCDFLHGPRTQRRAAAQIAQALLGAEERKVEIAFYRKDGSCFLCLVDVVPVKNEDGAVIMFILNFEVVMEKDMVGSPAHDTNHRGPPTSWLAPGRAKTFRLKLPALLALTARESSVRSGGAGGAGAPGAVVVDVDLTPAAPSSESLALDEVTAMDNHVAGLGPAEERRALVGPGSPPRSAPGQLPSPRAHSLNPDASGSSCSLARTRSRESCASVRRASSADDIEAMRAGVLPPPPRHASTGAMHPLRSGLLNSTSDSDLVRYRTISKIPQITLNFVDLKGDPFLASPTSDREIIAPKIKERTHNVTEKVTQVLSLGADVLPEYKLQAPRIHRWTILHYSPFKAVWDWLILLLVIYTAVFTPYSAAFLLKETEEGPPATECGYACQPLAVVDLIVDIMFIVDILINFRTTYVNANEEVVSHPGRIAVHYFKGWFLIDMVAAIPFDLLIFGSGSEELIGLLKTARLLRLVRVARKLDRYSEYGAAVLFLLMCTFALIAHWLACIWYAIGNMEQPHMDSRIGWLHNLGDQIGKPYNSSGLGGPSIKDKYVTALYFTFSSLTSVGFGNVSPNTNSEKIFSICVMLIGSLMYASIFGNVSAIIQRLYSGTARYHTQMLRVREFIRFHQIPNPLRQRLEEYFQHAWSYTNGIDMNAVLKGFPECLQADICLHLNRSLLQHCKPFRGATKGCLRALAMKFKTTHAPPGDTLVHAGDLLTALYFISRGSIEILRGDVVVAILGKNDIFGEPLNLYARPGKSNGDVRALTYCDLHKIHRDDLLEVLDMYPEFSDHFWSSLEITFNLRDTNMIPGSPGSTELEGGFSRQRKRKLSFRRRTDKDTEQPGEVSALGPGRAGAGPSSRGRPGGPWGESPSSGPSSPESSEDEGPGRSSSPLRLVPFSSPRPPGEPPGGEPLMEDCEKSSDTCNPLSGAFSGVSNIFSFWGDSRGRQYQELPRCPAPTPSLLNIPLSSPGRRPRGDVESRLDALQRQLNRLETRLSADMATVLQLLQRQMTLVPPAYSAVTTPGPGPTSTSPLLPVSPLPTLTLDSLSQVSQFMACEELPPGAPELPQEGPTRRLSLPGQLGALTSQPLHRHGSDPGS

As for `C/C(=N\Nc1nc2ccccc2n1C1CN(C2CCN(c3cccc4c3C(=O)N(C3CCC(=O)NC3=O)C4=O)CC2)C1)c1ccccn1` (configuration not stated), the results for the IC50 (in the data set with MCF7 [1]; in data set [13]) were 3 nM and 1100 nM, respectively. Moreover, the Activity is reported as roughly 35% in the data set on MCF7 [2]; “Non-toxic” in [3]; 31.96% in [6]; “Non-toxic” in data set [7]; 12.41% in [9]; 10.14% in data set [10]. The Activity entry in data set [11] was “Non-toxic”; in data set [12], 9.63%; in [17] it was “Dose-dependent-effect”; in [18], “Dose-dependent-effect”. Moreover, the AUC(0-t) came out at 47.1 ng·h/mL in [4] and 318 ng·h/mL in data set [19]. In [5], this compound displayed a clearance of 96.8 mL/min/kg. Moreover, the result (in the data set on Mus musculus; in data set [8]; in data set [14]) was Active. In addition, the viability at 20 µM in [15] came out at 42.7%. The Cmax in [16] worked out at 31.2 ng/mL. Moreover, in [20], the viability at 5 µM was 54.6%. This compound showed an AUC(0-inf) in data set [21] of 58.4 ng·h/mL.
